According to patent US12358935B2, “Targeting redox-active pyridinium cations to mitochondria to inhibit proliferation of drug-resistant cancer cells” (The Medical College of Wisconsin, Inc., priority 2018, dated 2025):
Entries after “also recorded” stand apart in the source; their conditions may differ. Where two headings read alike, the source gives them in different places.

Columns and labels:
[1] = Tumor tissue compound levels, LC-MS/MS; type: in vivo, mouse; conditions: 24 h after the last injection of Mito-NPH
From the text: (§1) FIG. 20. In vivo effects of Mito-NPH on the FC1242 PDAC tumor growth in mice. (A) Tumor growth curves; (B) tumor wet weight after 9 days of treatment; and (C) LC-MS/MS traces of Mito-NP, Mito-NPH, and their metabolites: hydroxylamine (Mito-HAP) and amine (Mito-AP) derivatives extracted from tumor. n=5 per group, *p<0.05
(§2) We treated pancreatic cancer cells with Mito-NP or Mito-NPH and the intracellular levels of both oxidized, redox-cycling capable Mito-NP, and its cell membrane-permeable reduced precursor, Mito-NPH, were measured using LC-MS/MS. […] The dynamics of inhibition of mitochondrial respiration by Mito-NPH and Mito-NP was used to follow the compounds' uptake rates. […] The increased intracellular level of Mito-NP upon treatment with Mito-NPH also translated into 2-fold stronger stimulation of intracellular O2.^− production, as measured by monitoring O2.^−-specific product of hydroethidine oxidation, 2-OH-E^+ (FIG. 18C). […] Next, we tested the effects of Mito-NPH on MiaPaCa2 cell proliferation and survival. […] 5. Syngraft mouse model. We have established a preliminary syngraft model using mouse FC1242 PDAC cell line. […] Tumor size was measured using calipers and by weighing the tumor tissues at the completion of the study. […] The tumor tissues were analyzed for the level of Mito-NP and Mito-NPH 24 h after the last injection of Mito-NPH.

FC1242 PDAC tumor = test: Syngraft mouse model, tumor growth; type: in vivo; conditions: 0.2 mg per injection, three times per week, 9 days of treatment, FC1242 syngraft in mice
From the text: as §1, §2

MiaPaCa2 cells [2] = test: Bioenergetic function, Seahorse XF96 flux analyzer; type: cell-based, human
Experimental: FIG. 16. Inhibition of mitochondrial respiration by Mito-NP in MiaPaCa2 cells. (A) Mito-NP injected during the measurements. (B) Cells pretreated with Mito-NP for 24 h. (C) Effect of Mito-NP concentration on ATP-linked respiration rate after 1 h and 24 h incubation. (D) Effect of Mito-NP concentration on glycolytic and mitochondrial ATP production rates after 24-h incubation.
(§3) FIG. 18. (A) Intracellular level of Mito-NP and Mito-NPH. (B) Dynamics of inhibition of mitochondrial respiration by Mito-NP and Mito-NPH. (C) Intracellular generation. 10 μM Mito-NP or Mito-NPH was used.
Immediately (1 h) after injection, a high concentration of Mito-NP (100 μM) was needed to block ATP-linked respiration (FIG. 16A,C). […] One of the hallmarks of cancer cells is their flexibility in using different energetic substrates to sustain growth in the presence of metabolism-targeted drugs.
(§4) We treated pancreatic cancer cells with Mito-NP or Mito-NPH and the intracellular levels of both oxidized, redox-cycling capable Mito-NP, and its cell membrane-permeable reduced precursor, Mito-NPH, were measured using LC-MS/MS. […] The dynamics of inhibition of mitochondrial respiration by Mito-NPH and Mito-NP was used to follow the compounds' uptake rates. […] The increased intracellular level of Mito-NP upon treatment with Mito-NPH also translated into 2-fold stronger stimulation of intracellular O2.^− production, as measured by monitoring O2.^−-specific product of hydroethidine oxidation, 2-OH-E^+ (FIG. 18C). […] Next, we tested the effects of Mito-NPH on MiaPaCa2 cell proliferation and survival. […] 5. Syngraft mouse model. We have established a preliminary syngraft model using mouse FC1242 PDAC cell line. After the tumor has been established and detectable by palpation (seven days after injection of tumor cells), Mito-NPH (0.2 mg per injection) was administered three times per week. Tumor size was measured using calipers and by weighing the tumor tissues at the completion of the study. […] The tumor tissues were analyzed for the level of Mito-NP and Mito-NPH 24 h after the last injection of Mito-NPH.

MiaPaCa2 cells [3] = test: Cellular oxidants, HE probe with HPLC profiling; type: cell-based, human; conditions: 10 μM
Experimental: FIG. 14. Stimulation of cellular oxidants by Mito-NP in pancreatic cancer cells. Profiles of HE oxidation products in MiaPaCa2 cells treated with Mito-NP (10 μM, 4 h).
as §3
2.1. Generation of O2.^− and other oxidants. […] We have confirmed the mitochondrial localization of O2.^− production using Mito-SOX (Mito-HE-C6) probe with HPLC-based detection of, 2-OH-Mito-E^+, the O2.^−-specific oxidation product of MitoSOX (not shown).
as §4

MiaPaCa2 cells [4] = test: Inhibition of pancreatic cancer cell growth; type: cell-based, human
Experimental: (§5) FIG. 12. (A) Antiproliferative potency of Mito-NP against different pancreatic cancer cells. (B) Comparison of the antiproliferative effects of Mito-NP, with its untargeted analogs (10 μM each).
FIG. 19. Antiproliferative (A) and cytotoxic (B) potency of Mito-NP vs. Mito-NPH. MiaPaCa2 cells were incubated with the compounds for 5 days and cells counted (A) or for 24 h, followed by labeling with Sytox Green dead cell fluorescent stain (B).
(§6) 1. Antiproliferative and cytotoxic effects in pancreatic cancer cells. […] To determine the cytotoxic potency of Mito-NP, we used Sytox Green fluorescent marker, which accumulates in dead cells and increases its fluorescence yield upon binding DNA.
We treated pancreatic cancer cells with Mito-NP or Mito-NPH and the intracellular levels of both oxidized, redox-cycling capable Mito-NP, and its cell membrane-permeable reduced precursor, Mito-NPH, were measured using LC-MS/MS. […] The increased intracellular level of Mito-NP upon treatment with Mito-NPH also translated into 2-fold stronger stimulation of intracellular O2.^− production, as measured by monitoring O2.^−-specific product of hydroethidine oxidation, 2-OH-E^+ (FIG. 18C). […] Tumor size was measured using calipers and by weighing the tumor tissues at the completion of the study. […] The tumor tissues were analyzed for the level of Mito-NP and Mito-NPH 24 h after the last injection of Mito-NPH.

MiaPaCa2 cells [5] = type: cell-based
Experimental: (§7) FIG. 13. […] Cells were stained with Sytox Green dye after 48-h treatment with the compounds to label dead cells.
FIG. 19. […] MiaPaCa2 cells were incubated with the compounds for 5 days and cells counted (A) or for 24 h, followed by labeling with Sytox Green dead cell fluorescent stain (B).
as §6
We treated pancreatic cancer cells with Mito-NP or Mito-NPH and the intracellular levels of both oxidized, redox-cycling capable Mito-NP, and its cell membrane-permeable reduced precursor, Mito-NPH, were measured using LC-MS/MS. […] The dynamics of inhibition of mitochondrial respiration by Mito-NPH and Mito-NP was used to follow the compounds' uptake rates. […] Next, we tested the effects of Mito-NPH on MiaPaCa2 cell proliferation and survival. […] 5. Syngraft mouse model. We have established a preliminary syngraft model using mouse FC1242 PDAC cell line. […] Tumor size was measured using calipers and by weighing the tumor tissues at the completion of the study. […] The tumor tissues were analyzed for the level of Mito-NP and Mito-NPH 24 h after the last injection of Mito-NPH.

[6] = tested on: HPNE non-tumorigenic pancreatic duct cell line; test: Cytotoxicity, Sytox Green dead cell stain; type: cell-based, human; conditions: HPNE non-cancer cells, 48-h treatment
From the text: as §7, §6

Panc1 cells = test: Inhibition of pancreatic cancer cell growth; type: cell-based, human
Experimental: as §5, §6

mitochondrial Prx3 [7] = test: Redox status of peroxiredoxin 3; type: cell-based, human; conditions: MiaPaCa2 cells
From the text: (§8) FIG. 15. Effect of Mito-NP on the redox status of cytosolic (Prx1) and mitochondrial (Prx3) peroxiredoxins in MiaPaCa2 cells. *p<0.05, ***p<0.001.
(§9) 2.2. Prx oxidation. Increased production of O2.^− results in elevated H2O2 flux. We tested the effect of Mito-NP on the redox status of cytosolic (Prx1) and mitochondrial (Prx3) peroxiredoxins (FIG. 15A).

LS513 cells [8] = test: Cell proliferation, IncuCyte cell confluence; type: cell-based, human; conditions: for IC50: estimated from concentration dependence
Experimental: FIG. 8. Effect of Mito-Py compounds (10 μM) on the proliferation of LS513 cells. (A) Effect of the substituent on the pyridinium ring. (B) Effect of the alkyl linker length in Mito-NP.
FIG. 9. Effect of concentration of Mito-NP-C8 and Mito-NP-C10 on the LS513 cell confluence. Dashed lines correspond to 50% cell confluence.
Antiproliferative effects of mitochondria-targeted pyridinium cations. To test if the mitochondrial redox stress induced by Mito-Py compounds would translate into inhibition of cancer cell proliferation, we compared the effects of Mito-Py of different redox potential and different alkyl linker length on proliferation of LS513 cells. We used the IncuCyte™ Live-Cell Imaging Analyzer that provides real-time cell confluence data (FIG. 8).

cytosolic Prx1 = test: Redox status of peroxiredoxin 1; type: cell-based, human; conditions: MiaPaCa2 cells
From the text: as §8, §9

FC1242 cells = test: Inhibition of pancreatic cancer cell growth; type: cell-based, mouse
Experimental: as §5, §6

LS513 cells [9] = test: Cell death, Sytox Green; type: cell-based, human; conditions: prolonged (>24 h) incubation
LS513 colon cancer cells [10] = test: Superoxide production, hydroethidine (HE) assay with HPLC of 2-OH-E+; type: cell-based, human; conditions: 50 μM, 1 h pre-incubation then 1 h HE probe
Experimental: FIGS. 5A-5B. Stimulation of intracellular superoxide of Mito-Py. LS513 colon cancer cells were pre-incubated for 1 h with 50 μM Mito-Py followed by 1-h incubation with the HE probe. 2-OH-E^+ is a specific product of the reaction of the probe with superoxide. (A) Effect of the substituent on the pyridinium ring. (B) Effect of the alkyl linker length in Mito-NP.
Induction of superoxide production by mitochondria-targeted pyridinium cations.

mitochondrial Prx3 [11] = test: Redox blotting of peroxiredoxin 3; type: cell-based, human; conditions: 10 μM, 1 h, LS513 cells
Experimental: FIG. 6. Effect of Mito-NP-C10 (10 μM, 1 h) on the redox status of cytosolic (Prx1) and mitochondrial (Prx3) peroxiredoxins. **p<0.01
Intracellular localization of redox stress. To understand the fate of superoxide induced by Mito-NP-C10 and determine the localization of the redox cycling process, we performed redox blotting of peroxiredoxin isoforms 1 and 3 (Prx1 and Prx3).

LS513 colon cancer cells [12] = test: Oxygen consumption rate / mitochondrial respiration; type: cell-based, human
Experimental: FIG. 7. Effect of Mito-NP-C10 (0-100 μM) on the rates of oxygen consumption (OCR) by LS513 colon cancer cells, and on the cell response to mitochondrial stressors: oligomycin (ATP synthase inhibitor), dinitrophenol (DNP, mitochondrial uncoupler) and antimycin A (mitochondrial complex III inhibitor).
Induction of bioenergetic stress. To test the effect of Mito-NP-C10 on the bioenergetic function of LS513 cells, we monitored the mitochondrial respiration in response to acute addition of the compound at different doses (FIG. 7).

SMILES: O=[N+]([O-])C1=CN(CCCCCCCCCC[P+](c2ccccc2)(c2ccccc2)c2ccccc2)C=CC1 [Mito-NPH]
- compound level in tumor tissues [1]: detected both Mito-NP and Mito-NPH
- tumor growth (size, wet weight) (FC1242 PDAC tumor): inhibition of the tumor growth
- dynamics of inhibition of mitochondrial respiration vs Mito-NP (MiaPaCa2 cells [2]; 10 μM): More efficient inhibition of mitochondrial respiration
- stimulation of intracellular O2.- production (2-OH-E+) vs Mito-NP (MiaPaCa2 cells [3]): 2 fold
- IC50 (MiaPaCa2 cells [4]; 5 days incubation, read-out: IC50 (antiproliferative, cell count)): 1200 ± 100 nM
- cytotoxic potency (Sytox Green) vs Mito-NP (MiaPaCa2 cells [5]; 24 h): significantly stronger cytotoxic agent

SMILES: O=[N+]([O-])c1ccc[n+](CCCCCCCCCC[P+](c2ccccc2)(c2ccccc2)c2ccccc2)c1 [Mito-NP]
- cell death (Sytox Green) [6]: No induction of cell death
- IC50 (Panc1 cells): 2800 ± 300 nM
- oxidation of mitochondrial Prx3 (mitochondrial Prx3 [7]): strong oxidation of mitochondrial Prx3
- cell proliferation (confluence) (LS513 cells [8]; 10 μM): blocked the proliferation of colon cancer cells
- mitochondrial respiration (MiaPaCa2 cells [2]): time- and concentration-dependent inhibition of mitochondrial respiration
- ATP-linked respiration (MiaPaCa2 cells [2]; 10 μM, 24-h incubation): complete inhibition of ATP-linked respiration
- rate of mitochondrial ATP production (MiaPaCa2 cells [2]; 24-h incubation): decrease in the rate of mitochondrial ATP production
- concentration needed to block ATP-linked respiration (MiaPaCa2 cells [2]; 1 h after injection): 100 µM
- glycolytic ATP production (MiaPaCa2 cells [2]; concentrations higher than 10 μM, 24-h incubation): decreased at higher concentrations
- glycolytic ATP production (MiaPaCa2 cells [2]; concentrations up to 10 μM, 24-h incubation): remained unchanged
- oxidation of cytosolic Prx1 (cytosolic Prx1): only modest effect on cytosolic Prx1
- O2.- production (2-OH-E+) (MiaPaCa2 cells [3]; 4 h): significant increase
- other HE oxidation products (MiaPaCa2 cells [3]; 4 h): An increased level of other oxidation products
- IC50 (MiaPaCa2 cells [4]; read-out: IC50 (cell growth)): 2700 ± 200 nM
- cell death (Sytox Green) (MiaPaCa2 cells [5]; 48-h treatment): dose-dependently induced death of MiaPaCa2 cells; also recorded: significantly stronger inducer of MiaPaCa2 cell death than Mito-Met
- IC50 (FC1242 cells): 3100 ± 100 nM

SMILES: O=[N+]([O-])c1ccc[n+](CCCCCCCC[P+](c2ccccc2)(c2ccccc2)c2ccccc2)c1 [Mito-NP-C8]
- cell death (Sytox Green) (LS513 cells [9]): results in cell death
- IC50 (LS513 cells [8]): 13000 nM
- superoxide production (2-OH-E+) (LS513 colon cancer cells [10]): stimulated superoxide production

SMILES: O=[N+]([O-])c1ccc[n+](CCCCCCCCCC[P+](c2ccccc2)(c2ccccc2)c2ccccc2)c1 [Mito-NP-C10]
- oxidation of mitochondrial Prx3 (mitochondrial Prx3 [11]): induces significant oxidation of mitochondrial Prx3
- cell death (Sytox Green) (LS513 cells [9]): results in cell death
- response to mitochondrial stressors (oligomycin, DNP, antimycin A) (LS513 colon cancer cells [12]; 0-100 μM): a loss in response to oligomycin
- mitochondrial respiration rates (OCR) (LS513 colon cancer cells [12]; 0-100 μM, acute addition): time- and concentration-dependent inhibition in mitochondrial respiration rates
- antimycin A-independent oxygen consumption (LS513 colon cancer cells [12]; 30 and 100 μM): increased the rates of antimycin A-independent oxygen consumption
- IC50 (LS513 cells [8]): 6000 nM
- superoxide production (2-OH-E+) (LS513 colon cancer cells [10]): most potent inducer of superoxide production
